Square brackets hold non-standard residues; d marks the D form. Peptide text beside a SMILES is read from it.
Columns and labels:
[1] = test system: A. baumannii 09987; settings: cation-adjusted Mueller-Hinton medium, twofold serial dilution (CLSI), 5 × 10^5 CFU per mL, overnight, 37°C
Method: (§1) The minimal inhibitory concentration (MIC) was determined in a cation-adjusted Mueller-Hinton medium that contains casein, beef extract and starch by using a twofold serial dilution method according to the standards and guidelines of the Clinical and Laboratory Standards Institute (CLSI). In brief, a twofold serial dilution of the test compound was prepared in microtiter plates and seeded using a final inoculum of bacteria of 5 × 10^5 colony-forming units per mL. […] The strain panel included representative species of nosocomial pathogens, which are known as “ESKAPE” bacteria. Specifically, the following strains were used: Enterococcus faecium BM 4147–1, Staphylococcus aureus ATCC 29213, Klebsiella pneumoniae ATCC 12657, Acinetobacter baumannii 09987, Pseudomonas aeruginosa ATCC 27853 and Enterobacter aerogenes ATCC 13048. Bacillus subtilis 168 and Escherichia coli ATCC 25922 were used as further reference strains. The ATCC strains were provided by the American Type Culture Collection. A. baumannii 09987 was obtained from the University of Bonn, Germany.

[2] = test system: B. subtilis 168; settings: cation-adjusted Mueller-Hinton medium, twofold serial dilution (CLSI), 5 × 10^5 CFU per mL, overnight, 37°C
Method: as §1

[3] = test system: E. aerogenes ATCC 13048; settings: cation-adjusted Mueller-Hinton medium, twofold serial dilution (CLSI), 5 × 10^5 CFU per mL, overnight, 37°C
Method: as §1

[4] = test system: E. coli ATCC 25922; settings: cation-adjusted Mueller-Hinton medium, twofold serial dilution (CLSI), 5 × 10^5 CFU per mL, overnight, 37°C
Method: as §1

[5] = test system: E. faecium BM 4147-1; settings: cation-adjusted Mueller-Hinton medium, twofold serial dilution (CLSI), 5 × 10^5 CFU per mL, overnight, 37°C
Method: as §1

[6] = test system: K. pneumonia ATCC 12657; settings: cation-adjusted Mueller-Hinton medium, twofold serial dilution (CLSI), 5 × 10^5 CFU per mL, overnight, 37°C
Method: as §1

[7] = test system: P. aeruginosa ATCC 27853; settings: cation-adjusted Mueller-Hinton medium, twofold serial dilution (CLSI), 5 × 10^5 CFU per mL, overnight, 37°C
Method: as §1

[8] = test system: strain panel of "ESKAPE" bacteria, Bacillus subtilis 168 and Escherichia coli ATCC 25922; settings: broth microdilution, up to the highest concentration tested (64 µg ml^−1)
Method: as §1

[9] = test system: HeLa cell line; settings: HeLa cell line at 64 µg ml^−1; resazurin assay
Method: The cytotoxicity test against the HeLa human cervical carcinoma cell line was performed in RPMI cell culture medium supplemented with 10% fetal bovine serum using the 7-hydroxy-3H-phenoxazin-3-one-10-oxide (resazurin) assay. A twofold serial dilution of the test compounds was prepared in duplicates in a microtiter plate and seeded with trypsinized HeLa cells to a final cell concentration of 1 × 10^4 cells per well. After 24 h incubation at 37°C, 5 % CO2, 95% relative humidity, resazurin was added at a final concentration of 200 µM, and cells were again incubated overnight. Cell viability was assessed by determining the reduction of resazurin to the fluorescent resorufin. Fluorescence was measured in a TECAN M200 reader at an excitation wavelength of 560 nm and an emission wavelength of 600 nm in relation to the untreated control.

[10] = molecular target: tyrosinase (Agaricus bisporus, UniProt C7FF04); assay: Tyrosinase inhibition assay (kit MAK257); format: biochemical; settings: comparison of IC50 values with arbutin and kojic acid
Method: In brief, 20 µL massiliamide (1) with various concentrations (0.05–5 µM) was added into 50 µL tyrosinase enzyme solutions that contained 48 µL MAK257A buffer and 2 µL of tyrosinase. The mixture was then incubated for 10 min at 25°C, followed by the addition of 30 µL substrate solution, containing 23 µL MAK257A buffer, 2 µL tyrosinase substrate, and 5 µL tyrosinase enhancer. The final reaction mixture was then homogenized by shaking and immediately monitored at 510 nm using a Tecan Infinite 200 Pro microplate reader, applying the kinetic mode for 30-60 min. […] Each measurement was conducted in three independent replications.

[11] = test system: S. aureus ATCC 2921; settings: cation-adjusted Mueller-Hinton medium, twofold serial dilution (CLSI), 5 × 10^5 CFU per mL, overnight, 37°C
Method: The minimal inhibitory concentration (MIC) was determined in a cation-adjusted Mueller-Hinton medium that contains casein, beef extract and starch by using a twofold serial dilution method according to the standards and guidelines of the Clinical and Laboratory Standards Institute (CLSI) [10]. In brief, a twofold serial dilution of the test compound was prepared in microtiter plates and seeded using a final inoculum of bacteria of 5 × 10^5 colony-forming units per mL.

tyrosinase, sequence (C7FF04 whole entry): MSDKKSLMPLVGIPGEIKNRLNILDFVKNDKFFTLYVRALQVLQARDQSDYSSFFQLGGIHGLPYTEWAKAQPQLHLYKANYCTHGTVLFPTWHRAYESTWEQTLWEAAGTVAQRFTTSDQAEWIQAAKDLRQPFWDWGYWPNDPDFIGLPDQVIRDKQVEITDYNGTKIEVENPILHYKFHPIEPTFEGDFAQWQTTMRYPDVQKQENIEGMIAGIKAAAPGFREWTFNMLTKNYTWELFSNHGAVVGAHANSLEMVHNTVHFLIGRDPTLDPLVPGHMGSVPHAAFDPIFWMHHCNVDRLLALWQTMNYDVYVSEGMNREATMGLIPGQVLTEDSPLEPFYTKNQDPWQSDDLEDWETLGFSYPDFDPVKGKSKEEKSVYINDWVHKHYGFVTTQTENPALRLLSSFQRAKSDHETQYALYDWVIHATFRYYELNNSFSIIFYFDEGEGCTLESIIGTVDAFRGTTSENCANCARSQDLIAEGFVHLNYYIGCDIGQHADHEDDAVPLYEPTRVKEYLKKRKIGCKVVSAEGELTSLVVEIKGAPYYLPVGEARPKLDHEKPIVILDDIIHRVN

CC(C)[C@H]1NC(=O)[C@@H]2CCCN2C(=O)[C@@H](Cc2ccc(O)cc2)NC(=O)[C@@H]2CCCN2C1=O [Massiliamide (1)] (cyclo(P[dY]P[dV]))
MIC [1]: > 64 µg/mL
MIC [2]: > 64 µg/mL
MIC [3]: > 64 µg/mL
MIC [4]: > 64 µg/mL
MIC [5]: > 64 µg/mL
MIC [6]: > 64 µg/mL
MIC [7]: > 64 µg/mL
Antimicrobial activity (in words) [8]: inactive up to the highest concentration tested
Cytotoxicity (in words) [9]: no cytotoxicity
Tyrosinase inhibition compared with positive controls (in words) [10]: surpassed readily the activities of the positive controls arbutin and kojic acid
MIC [11]: > 64 µg/mL

— publication PMC8005375, “Massiliamide, a cyclic tetrapeptide with potent tyrosinase inhibitory properties from the Gram-negative bacterium Massilia albidiflava DSM 17472^T” (The Journal of Antibiotics, 2020)
